Laboratory results as given in patent US11104657B2, “Notch inhibitors for use in the treatment of t-cell acute lymphoblastic leukemia” (UNIVERSITÀ DEGLI STUDI DI ROMA “LA SAPIENZA”, priority 2016, dated 2021).
Where two headings read alike, the source gives them in different places.

Tests used:
[1] = tested on: DND41 cells; test: MTS cell proliferation assay (IG50), DND41; assay type: cell-based, human; settings: for effect on cell proliferation: doses of up to 50 μM; for IC50: Homo sapiens
Experimental: In order to evaluate the biological implications of the compounds, their effect on cell proliferation/vitality was tested by determining the relative concentrations of growth inhibition (IG50) by means of the MTS cellular assay.
(§1) The cell lines DND41 (ACC 525, DSMZ, Braunschweig, GERMANY), KOPTK1 (RRID: CVCL_4965) were maintained in culture in RPMI-1640 (Gibco, Carlsbad, Calif., USA) with 10% fetal bovine serum. TALL-1 cells (ACC-521: DSMZ, Braunschweig, GERMANY) were cultured in RPMI-1640 (Gibco, Carlsbad, Calif., USA) supplemented with 20% fetal bovine serum, while HaCaT cells (ACC-771: DSMZ, Braunschweig, GERMANY) were maintained in Eagle's culture medium according to Dulbecco (Gibco, Carlsbad, Calif., USA) containing 10% fetal bovine serum. Cells were treated with the naturally-occurring compounds A-H or with compounds 1-17 for times and concentrations indicated in the text.
Cells were seeded in 96-well plates with a density of 5×10^5 cells/ml (5×10^4 cells per well) and treated for the times and the concentrations of the various compounds, as indicated in the text.
(§2) All treatments were carried out in triplicate, including control treatments. All treatment reactions contained a final concentration of 1% DMSO (D5879; Sigma-Aldrich, St Louis, Mo., USA). To quantify vitality, cells were assayed by the MTS CellTiter 96® AQueous One Solution Cell Proliferation Assay (G3580; Promega, Madison, Wis., USA). Absorbance was detected at 490 nm using the GloMax Multidetection System instrument (Promega, Madison, Wis., USA). Data were collected in the form of absorbance units (ABSs) and standardized to obtain the proliferation rate (MTS) through the equation: % cell proliferation=(ABScell culture+compound−ABSculture medium+compound/(ABScell culture+DMSO−ABSculture medium+DMSO)×100.
The 50% inhibition concentration was calculated using the GraphPad Prism software program (GraphPad Software Inc., La Jolla, Calif., USA).

[2] = tested on: Notch signaling (N1VAL, N3ICD) in DND41 cells; test: Western blot of N1VAL and N3ICD expression in DND41 cells; assay type: cell-based, human; settings: for effect on the expression of N1VAL / concentration at which expression of N1VAL and N3ICD is decreased: DND41 cells, 36 hours, Western blot; for effect on the expression of N1VAL: 0-50 μM
Experimental: In order to identify new naturally-occurring molecular agents able to modulate Notch signaling, the effects on protein expression of the activated domain of Notch1 (N1VAL), and of the intracellular domain of Notch3 (N3ICD), were evaluated in DND41 cells through
Western blotting assays, following treatment for 36 hours with increasing concentrations (0, 1, 5, 10, 20, 50 μM) of the eight molecules (A-H) previously selected. Functional biochemical screening was performed on T-ALL DND41 cells because they are notoriously sensitive to the block of Notch signaling, and characterized by the constitutive and ligand-independent activation of the Notch1 pathway and by the high expression of Notch3. This makes this cell line a useful experimental model for screening putative Notch inhibitors.
In order to investigate the activity and selectivity of action of the 12 synthetic derivatives of butein, and following the screening scheme described in the first design phase, the efficacy of these molecules was analyzed by verifying the effects of 36 hours of treatment at increasing doses on the activation of Notch signaling and on the proliferation in DND41 cells.
(§3) Laemmli Sample Buffer (161-0737; Bio-Rad Laboratories Inc., Hercules, Calif., USA) was added to each cell pellet. Cells were lysed by ultrasonic sonication and to each mixture 5% 2-mercaptoethanol (161-0710; Bio-Rad Laboratories Inc., Hercules, Calif., USA) was added. Samples were denatured at 100° C. for 5 min and protein mixtures were separated by means of Sodium Dodecyl Sulphate-Polyacrylamide Gel Electrophoresis using 8% acrylamide and transferred onto nitrocellulose membranes. After transfer, the membranes pre-saturated in 5% Blot Dry Fat Milk (1706404; Bio-Rad Laboratories Inc., Hercules, Calif., USA) were incubated for 16 hours at +4° C. with the following primary antibodies diluted at 1:1000 in 5% Dry Fat Milk (1706404; Bio-Rad Laboratories Inc., Hercules, Calif., USA): Notch1Val1744 (2421; Cell Signaling Technology, Beverly, Mass., USA), Notch3 (2889; Cell Signaling Technology, Beverly, Mass., USA) and β-actin (sc-47778; Santa Cruz Biotechnology, Santa Cruz, Calif., USA). Subsequently, filters were incubated for 1 hour at room temperature with the following secondary antibodies: anti-rabbit (sc-2004, Santa Cruz Biotechnology, Santa Cruz, Calif., USA) or anti-mouse (sc-2005, Santa Cruz Biotechnology, Santa Cruz, Calif., USA). Chemiluminescence signal detection was performed using the ECL Advanced Detection System substrate (RPN2135; E Healthcare UK Limited, Buckinghamshire, UK).

[3] = tested on: activated domain of Notch1 in HaCaT cells; test: Western blot of N1VAL expression in HaCaT cells; assay type: cell-based; settings: 36 hours
Experimental: as §3, with “Chemiluminescence signal detection was performed using the ECL Advanced Detection System substrate (RPN2135; E Healthcare UK Limited, Buckinghamshire, UK).” left out

[4] = tested on: KOPTK1 cells; test: MTS cell proliferation assay, KOPTK1; assay type: cell-based; settings: Homo sapiens
Experimental: as §1, with “text. […]” for “text.”
as §2, with “All treatment reactions contained a final concentration of 1% DMSO (D5879; Sigma-Aldrich, St Louis, Mo., USA).” left out, “medium+DMSO)×100. […]” for “medium+DMSO)×100.”

[5] = tested on: TALL-1 cells; test: MTS cell proliferation assay, TALL-1; assay type: cell-based; settings: Homo sapiens
Experimental: as §1, with “text. […]” for “text.”
as §2, with “All treatment reactions contained a final concentration of 1% DMSO (D5879; Sigma-Aldrich, St Louis, Mo., USA).” left out, “medium+DMSO)×100. […]” for “medium+DMSO)×100.”

[6] = tested on: HaCaT keratinocytes; test: MTS cell proliferation assay, HaCaT keratinocytes; assay type: cell-based; settings: Homo sapiens; immortalized non-tumor HaCaT keratinocytes
Experimental: as §1, with “text. […]” for “text.”
as §2, with “All treatment reactions contained a final concentration of 1% DMSO (D5879; Sigma-Aldrich, St Louis, Mo., USA).” left out, “medium+DMSO)×100. […]” for “medium+DMSO)×100.”

[7] = 36-hour treatments in DND41 cells, mean of triplicate experiments ± S.D., Table 1, read-out: IG50 S.D.
[8] = 36-hour treatments in DND41 cells, mean of triplicate experiments ± S.D., Table 2, read-out: IG50 ± S.D.
[9] = DND41 cells, MTS assay, 36 hours of treatment, read-out: IG50 (growth inhibition)

Row | SMILES | effect on cell proliferation ([1]; DND41 cells) | IC50 [1, 7] | effect on the expression of N1VAL [2] | IC50 [1, 9] | further results
1 | CC(C)(O)C1Cc2c(ccc3ccc(=O)oc23)O1 (stereo in doubt) [Compound E, (8R)-8-(2-hydroxypropane-2-yl)-8,9-dihydrofuran[2,3-h]chromen-2-one, reference compound] | do not significantly affect cell proliferation | > 50 µM | did not significantly modulate | – | –
2 | COc1ccc(C(=O)/C=C/c2ccc(O)cc2)c(O)c1 [Compound 8, 2′,4-dihydroxy-4′-methoxychalcone] | – | – | – | 1.92 µM | concentration from which expression of the activated domain of Notch1 is significantly reduced [3]: ≥ 2.5 µM; IC50 [1, 8]: 1.92 ± 1.04 µM; IC50 [4]: 0.91 ± 0.06 µM; IC50 [5]: 0.29 ± 0.02 µM; IC50 [6]: 48.6 ± 8.06 µM
3 | COc1ccc(C(=O)/C=C/c2ccc(O)cc2)c(OC)c1 [Compound 16, 4-hydroxy-2′,4′-dimethoxychalcone] | – | – | – | > 13 µM | IC50 [1, 8]: 13.8 ± 0.61 µM; concentration at which expression of N1VAL and N3ICD is decreased [2]: 2.5 µM
4 | COc1ccc(C(=O)/C=C/c2ccc(O)cc2)cc1 [Compound 17, 4-hydroxy-4′-methoxychalcone] | – | – | – | > 13 µM | IC50 [1, 8]: 19.5 ± 0.56 µM; concentration at which expression of N1VAL and N3ICD is decreased [2]: 2.5 µM
5 | O=C1c2c(O)cc(O)cc2O[C@H](c2ccc(O)c(O)c2)[C@H]1O [Compound A, (2R,3R)-2-(3,4-dihydroxyphenyl)-3,5,7-trihydroxy-2,3-dihydrochromen-4-one, reference compound] | do not significantly affect cell proliferation | > 50 µM | – | – | –
6 | CC(C)=CCc1c(O)ccc(C(=O)/C=C/c2ccc(O)cc2)c1O [Compound B, (E)-1-[2,4-dihydroxy-3-(3-methylbut-2-enyl)phenyl]-3-(4-hydroxyphenyl) prop-2-en-1-one, reference compound] | – | 13.9 µM | – | 13.9 ± 2.7 µM | inhibitory activity of Notch ([2]; screening carried out by the present inventors): did not show any inhibitory activity
7 | O=C(/C=C/c1ccc(O)c(O)c1)c1ccc(O)cc1O [Compound C, (E)-1-(2,4-dihydroxyphenyl)-3-(3,4-dihydroxyphenyl)prop-2-en-1-one, reference compound] | – | 7.79 µM | – | 7.79 ± 1.73 µM | –
8 | COc1c2occc2cc2ccc(=O)oc12 [Compound D, 9-methoxyfuran[3,2-g]chromen-7-one, reference compound] | do not significantly affect cell proliferation | > 50 µM | did not significantly modulate | – | –
9 | COc1ccc2oc3cccc(O)c3c(=O)c2c1 [Compound F, 1-hydroxy-7-methoxy-9H-xanthen-9-one, reference compound] | do not significantly affect cell proliferation | > 50 µM | did not significantly modulate | – | –
10 | CC(=O)C1=C(O)[C@]2(C)C(=CC1=O)Oc1c(C(C)=O)c(O)c(C)c(O)c12 [Compound G, 2,6-diacetyl-7,9-dihydroxy-8,9b-dimethyldibenzofuran-1,3-dione, reference compound] | do not significantly affect cell proliferation | – | did not significantly modulate | – | IC50 ([1]; DND41, 36 h, read-out: IG50 S.D.): > 50 µM
11 | O=c1c(O)c(-c2ccccc2)oc2cc(O)cc(O)c12 [Compound H, 3,5,7-trihydroxy-2-phenylchromen-4-one, reference compound] | – | 22.6 µM | – | 22.6 ± 1.89 µM | –
